Measurements published in patent US9250249B2, “Autophagy and phospholipidosis pathway assays” (Enzo Biochem, Inc., priority 2008, dated 2016).
Read-outs that look alike come from different tables or passages of the source. Values belong to the compound of their own block, whether it stands above or below them.

Columns and labels:
[1] = test system: U2OS cells; test: Lipid-Tox fluorescent phospholipid analog-based phospholipidosis assay; type: cell-based, human; settings: 24 hours co-incubation with Lipid-Tox dye and drug
Method: Many assays of phospholipidosis, including the Lipid-Tox assay (Invitrogen, Carlsbad, Calif.), are based upon co-incubating cells with a fluorescent phospholipid analog for an extended period of time, along with the drug or test agent being evaluated, and then monitoring signal generation in fixed and permeabilized cells. Dye 1 is not a fluorescent phospholipid analog, but instead is a cationic amphiphilic fluorophore tracer. Cells are incubated with the drug or test agent in isolation and then briefly treated with the tracer dye before evaluation in live cells. […] Choloroquine, a prototypical phospholipidosis-inducing agent, and bafilomycin A, an agent well known to induce the accumulation of autophagosomes, were evaluated using both Dye 1 and Lipid-Tox dye-based assays (FIG. 3). […] Cells stained with Lipid-Tox dye (solid triangles dash-dot line) were incubated in the presence of the fluorescent lipid for 24 hours during treatment with the drugs.

[2] = test system: U2OS cells; test: Multiplexed CF-PE / Dye 1 / Hoechst 33342 microplate assay distinguishing phospholipidosis from autophagy pathway inhibition; type: cell-based, human; settings: 24 h with CF-PE medium and test compound; for green signal (CF-PE) relative to vehicle-treated controls: ex 492 nm, em 517 nm; for red signal (Dye 1) relative to vehicle-treated controls: then Dye 1 15 min
Method: For example, CF-PE was suspended in ethanol and diluted in the cell culture medium (McCoy's 5a modified medium, as described in Example 3) to give a solution (CF-PE medium) with final concentration of 50 μM (0.46% ethanol). […] medium was then sonicated and filtered through a […] filter. The prepared was then applied to U2OS cells growing in a 96-well microplate. After an equilibration period of 24 h, the cell culture medium was replaced with CF-PE medium with or without each test compound, and the cells were incubated at 37° C. for an additional 24 h. After incubation, the cells were rinsed with medium and further incubated with the same medium containing Dye 1 and Hoechst 33342 dye for an additional 15 min at 37° C. in 5% CO2 atmosphere.
Fluorescence signal was determined using a standard microplate reader, as described in example 4, except that CF-PE was additionally read at an excitation wavelength of 492 nm and an emission wavelength of 517 nm. […] Generalized cytotoxicity is evident as a substantial decrease in blue signal (≧30%) relative to vehicle-treated control cells.

[3] = test system: U2OS cells; test: Cell number per well by Hoechst 33342 fluorescence (generalized compound toxicity); settings: for Relative Hoechst Stain (intensity of Hoechst 33342 fluorescence of treated cells compared to the untreated control; number of cells remaining): 18 hours, single concentration per compound; for generalized cellular toxicity (loss of cells / decrease in Hoechst 33342 signal): greater than 30% decrease in cell number flagged as toxic
Method: (§2) Fluorescence intensity of the cells cultured on the 96-well plates was measured using a FLUOstar OPTIMA Multifunction Microplate Reader (BMG LabTech, Offenburg, Germany). […] Fluorescence intensity was expressed as percentage of the vehicle control value.
(§3) In the preliminary screen, test agents were employed at a single dose in an effort to identify any potential lysosome-modifying agents.

[4] = test system: U2OS cells; test: Fluorescence microplate-based lysosomal perturbation assay (Dye 1 fluorescence), incl. ICCB library screen; settings: for Relative Lyso Stain (intensity of Dye 1 fluorescence of treated cells compared to the untreated control): 18 hours, single concentration per compound; for vacuolation / expansion of lysosomal compartment detected by Dye 1 assay: Dye 1 stained post drug incubation; for hit call in ICCB library screen (Dye 1 accumulation): ICCB known bioactives library screen
Method: In order to increase throughput and reduce handling time, the fluorescence microscopy-based lysosomal perturbation assay was scaled up to a 96-well microplate plate assay format and analyzed using a fluorescence microplate reader.
as §2, §3

[5] = test system: cultured cells; settings: high micromolar concentrations; cited from earlier work
[6] = test system: U2OS human osteosarcoma cells; test: Fluorescence microscopy-based lysosomal perturbation assay (Dye 1 staining); type: cell-based; settings: U2OS cells pre-treated with drug (chloroquine 8-64 μM, 18 hours), Dye 1 15 min
Method: (§1) U2OS human osteosarcoma cells were maintained in McCoy's 5a modified medium supplemented with 10% FBS and 100 units/ml penicillin/streptomycin (Invitrogen, Carlsbad, Calif.) in a humidified 37° C., 5% CO2 environment. Cells were allowed to proliferate on glass slides or were seeded into 96-well plates at a density of 2×10^4 cells/well and allowed to attach overnight. The cells were plated such that at the end of the experiment, they reached about 90% confluency.
The fluorescence-based lysosomal perturbation assay was established by first incubating cells cultivated on glass slides for 4-24 hours with chloroquine (8-64 μM final concentration), a well known phospholipidosis-inducing agent. Control cells were incubated with 0.1% (v/v) dimethyl sulfoxide (DMSO), which served as the vehicle control. Cells were then briefly (15 min) incubated with a combination of Dye 1 and Hoechst 33342 dye. Following incubation, cells grown on glass microscope slides were covered with glass coverslips, sealed with nail polish and observed using an inverted Axiovert 200M microscope (Carl Zeiss, Inc., Oberkochen, Germany). Images were acquired with a 63× objective lens (Zeiss).
Cells were subsequently stained with Dye 1 for 15 minutes. Nuclei were counter-stained with Hoechst 33342 dye. In FIG. 1, control U2OS cells are shown in (A), cells pre-treated for 18 hours with 8 μM chloroquine in (B), cells pre-treated for 18 hours with 16 μM chloroquine in (C) and cells pre-treated for 18 hours with 64 μM chloroquine in (D). This staining pattern was also consistently observed for other drugs that are known to induce phospholipidosis, such as chlorpromazine, fluoxetine, pimozide and verapamil (further described in Example 4). […] The ability of Dye 1 to detect vacuole accumulation in the described in vitro cell culture model mimicking Fabry disease strongly supports the present invention and its suitability for the detection of genetically derived lysosomal storage diseases.

[7] = test system: U2OS cells; settings: for Relative Hoechst Stain (intensity of Hoechst 33342 fluorescence of treated cells compared to the untreated control; number of cells remaining): human, 18 h
Method: as §2, §3

[8] = test system: HeLa cells; test: Fluorescence microscopy lysosomal perturbation assay with Dye 6; type: cell-based; settings: chloroquine 120 μM for 6 hours, Dye 6 15 min
Method: as §1, with “HeLa” for “U2OS human osteosarcoma”, “Dulbecco's” for “McCoy's 5a”, “modified Eagles” for “modified”, “FBS,” for “FBS and”, “Calif.) and MEM non essential amino acids” for “Calif.)”, “slides” for “slides or were seeded into 96-well plates”
The fluorescence-based lysosomal perturbation assay was established by first incubating cells cultivated on glass slides for 6 hours with chloroquine (120 μM final concentration), a well known phospholipidosis-inducing agent. Control cells were incubated with 0.1% (v/v) dimethyl sulfoxide (DMSO), which served as the vehicle control. Cells were then briefly (15 min) incubated with Dye 6 at room temperature. Following incubation, cells grown on glass microscope slides were covered with glass coverslips, sealed with nail polish and observed using an Olympus BX51 microscope. Images were acquired with a 40× objective lens. […] The untreated cells gave a low level of fluorescent staining.

[9] = test system: U-2-OS human osteosarcoma cells; test: In vitro model of sphingolipidosis (Niemann-Pick mimic), microplate readout at 680 nm and 480 nm; type: cell-based
Excerpt: Stable cell lines derived from patients with Niemann-Pick disease can not be found in cell line repositories, such as American Type […] Collection (Manassas, Va.), and are not readily available to the research community. Consequently, an in vitro tissue culture model of sphingolipidosis was devised using 2R,3S,4E)-N-methyl-5-(4′pentylphenyl)-2-aminopent-4-ene-1,3-diol, designated SK1-I (BML-258), a potent, water soluble, isozyme-specific inhibitor of sphingosine kinase-1. […] U-2-OS human osteosarcoma cells were seeded at 22,500 cells/well, grown overnight, and then treated with a final concentration of 0, 2.5, 5, 10 or 20 μM of SK1-I for 18.5 hours. Next, the cells were briefly treated with compound 1 and the nuclear Hoechst 33342 dye, as described in Example 7. Fluorescence signal was read on a BioTek Synergy Mx microplate reader at excitation values of 340 and 540 nm and emission values of 480 and 680 nm. […] Fluorescence microscope-based examination of the wells confirmed that compound 1 staining of the cells was confined to the vacuolar structures. This in vitro model confirms the feasibility of using the assay for detecting aberrant accumulation of sphingolipids in cells, and by extension the feasibility of using the assay in monitoring inherited lysosomal storage diseases, such as Niemann-Pick disease.

[10] = pH dependence of Dye 1 fluorescence; type: physicochemical; settings: pH range of 4.0 to 9.0
[11] = Homo sapiens, 18 h, read-out: EC50 (Dye 1-based assay)

Compound: CO/C1=C\C(C)=C\[C@@H](C)[C@@H](O)[C@@H](C)C/C(C)=C/C=C/[C@H](OC)[C@@H]([C@@H](C)[C@@H](O)[C@H](C)[C@@]2(O)C[C@@H](O)[C@H](C)[C@@H](C(C)C)O2)OC1=O [Bafilomycin A1]
- vacuolation / expansion of lysosomal compartment detected by Lipid-Tox assay [1]: only Dye 1 identified the increased vacuolation
- green signal (CF-PE) relative to vehicle-treated controls [2]: low green signal
- red signal (Dye 1) relative to vehicle-treated controls [2]: increased red signal
- Relative Hoechst Stain (intensity of Hoechst 33342 fluorescence of treated cells compared to the untreated control; number of cells remaining) [3]: 58%
- generalized cellular toxicity (loss of cells / decrease in Hoechst 33342 signal) [3]: cytotoxic
- Relative Lyso Stain (intensity of Dye 1 fluorescence of treated cells compared to the untreated control) [4]: 176%
- vacuolation / expansion of lysosomal compartment detected by Dye 1 assay [4]: increase vacuole number and volume
- vacuolation / expansion of lysosomal compartment detected by Dye 1 assay ([4]; listed as bafilomycin A): increased vacuolation
- EC50 ([4]; read-out: calculated EC50 value in Dye 1 based assay, 24 hours treatment, Dye 1 15 minutes post drug): 0.003 µM

Compound: CC(C)NCC(O)COc1cccc2ccccc12 (stereo not drawn) [Propranolol (S-), Propranolol]
- time to half maximum uptake [5]: 4 to 10 min
- time to steady state of cellular uptake [5]: 40 to 60 min

Compound: CNCCC(Oc1ccc(C(F)(F)F)cc1)c1ccccc1 (stereo not drawn) [fluoxetine]
- punctate pattern of cytoplasmic staining / levels of Dye 1 in the cells [6]: increased in a dose-dependent manner
- generalized cellular toxicity (loss of cells / decrease in Hoechst 33342 signal) [7]: toxic doses

- EC50 [4, 11]: 15 µM
Compound: CCN(CC)CCCC(C)Nc1ccnc2cc(Cl)ccc12 (stereo not drawn) [chloroquine]
- punctate pattern of cytoplasmic staining / levels of Dye 1 in the cells [6]: increased in a dose-dependent manner
- vacuolation / expansion of lysosomal compartment detected by Lipid-Tox assay [1]: induced an expansion in the lysosomal compartment
- fluorescence intensity of lysosomal staining with Dye 6 [8]: increase in fluorescence intensity of lysosomal staining
- green signal (CF-PE) relative to vehicle-treated controls [2]: increased green and red signal
- red signal (Dye 1) relative to vehicle-treated controls [2]: increased green and red signal
- vacuolation / expansion of lysosomal compartment detected by Dye 1 assay [4]: induced an expansion in the lysosomal compartment

- Relative Hoechst Stain (intensity of Hoechst 33342 fluorescence of treated cells compared to the untreated control; number of cells remaining) [7]: 53%
Compound: CCCCOc1cc(CC2CNC(=O)N2)ccc1OC (stereo not drawn) [Ro 20-1724]
- Relative Lyso Stain (intensity of Dye 1 fluorescence of treated cells compared to the untreated control) [4]: 190%

Compound: O=c1[nH]c2ccccc2n1C1CCN(CCCC(c2ccc(F)cc2)c2ccc(F)cc2)CC1 [pimozide]
- generalized cellular toxicity (loss of cells / decrease in Hoechst 33342 signal) [7]: toxic doses

- Relative Hoechst Stain (intensity of Hoechst 33342 fluorescence of treated cells compared to the untreated control; number of cells remaining) [7]: 101%
Compound: NC(=O)c1ccc(-c2nc(-c3ccc4c(c3)OCO4)c(-c3ccccn3)[nH]2)cc1 [SB-431542]
- Relative Lyso Stain (intensity of Dye 1 fluorescence of treated cells compared to the untreated control) [4]: 154%
- hit call in ICCB library screen (Dye 1 accumulation) [4]: positive hits

Compound: CCCCCc1ccc(/C=C/[C@H](O)[C@@H](CO)NC)cc1 [SK1-I]
- emission values at 680 nm (accumulation of sphingolipids within the vacuolar compartment) ([9]; U-2-OS, 0, 2.5, 5, 10 or 20 μM for 18.5 hours): Dose-dependent increases
- cell viability (480 nm emission intensity from Hoechst dye) ([9]; U-2-OS, 0-20 μM for 18.5 hours): Cell viability was maintained under all treatment conditions

Compound: CC(=O)c1c(O)c(C)c(O)c(Cc2c(O)c3c(c(C(=O)/C=C/c4ccccc4)c2O)OC(C)(C)C=C3)c1O [Rottlerin]
- Relative Hoechst Stain (intensity of Hoechst 33342 fluorescence of treated cells compared to the untreated control; number of cells remaining) [3]: 34%
- generalized cellular toxicity (loss of cells / decrease in Hoechst 33342 signal) [3]: generally cytotoxic
- generalized cellular toxicity (loss of cells / decrease in Hoechst 33342 signal) ([3]; listed as rottlerin): significant toxicity
- Relative Lyso Stain (intensity of Dye 1 fluorescence of treated cells compared to the untreated control) [4]: 187%
- hit call in ICCB library screen (Dye 1 accumulation) [4]: false positive hit

Compound: CN(C)CCCn1cc(C2=C(c3c[nH]c4ccccc34)C(=O)NC2=O)c2ccccc21 [GF-109203X]
- Relative Hoechst Stain (intensity of Hoechst 33342 fluorescence of treated cells compared to the untreated control; number of cells remaining) [3]: 87%
- Relative Lyso Stain (intensity of Dye 1 fluorescence of treated cells compared to the untreated control) [4]: 197%

- fluorescence emission intensity and wavelength maximum versus pH [10]: not significantly altered
Compound: CN(C)CCNc1c(F)c(F)c(NCCN(C)C)c2c1C(=O)c1c(O)ccc(O)c1C2=O [Dye 1, 1,4-bis(2-(dimethylamino)ethylamino)-2,3-difluoro-5,8-dihydroxyanthracene-9,10-dione]

- EC50 [4, 11]: 6 µM
Compound: CN(C)CCCN1c2ccccc2Sc2ccc(Cl)cc21 [chlorpromazine]
- punctate pattern of cytoplasmic staining / levels of Dye 1 in the cells [6]: increased in a dose-dependent manner

Compound: CC(C)(C)c1cc(C=C(C#N)C#N)cc(C(C)(C)C)c1O [Tyrphostin 9]
- Relative Hoechst Stain (intensity of Hoechst 33342 fluorescence of treated cells compared to the untreated control; number of cells remaining) [3]: 31%
- Relative Lyso Stain (intensity of Dye 1 fluorescence of treated cells compared to the untreated control) [4]: 200%

Compound: COc1ccc(CCN(C)CCCC(C#N)(c2ccc(OC)c(OC)c2)C(C)C)cc1OC (stereo not drawn) [verapamil]
- punctate pattern of cytoplasmic staining / levels of Dye 1 in the cells [6]: increased in a dose-dependent manner
- EC50 [4, 11]: 30 µM

Compound: Cn1cc(C2=C(c3cn(CCCSC(=N)N)c4ccccc34)C(=O)NC2=O)c2ccccc21 [Ro 31-8220]
- Relative Hoechst Stain (intensity of Hoechst 33342 fluorescence of treated cells compared to the untreated control; number of cells remaining) [3]: 89%
- Relative Lyso Stain (intensity of Dye 1 fluorescence of treated cells compared to the untreated control) [4]: 146%
- hit call in ICCB library screen (Dye 1 accumulation) [4]: positive hit
